Reference: ChEMBL document CHEMBL5113453, “Design, synthesis, and biological evaluation of a new series of pyrazole derivatives: Discovery of potent and selective JNK3 kinase inhibitors” (Bioorg Med Chem, 2022)

Tests used:
[1] = tested on: HL-60(TB); assay: Antiproliferative activity against human HL-60(TB) cells measured after 48 hrs by SRB assay; assay type: functional, cell-based
[2] = tested on: K562; assay: Antiproliferative activity against human K562 cells measured after 48 hrs by SRB assay; assay type: functional, cell-based
[3] = tested on: MOLT-4; assay: Antiproliferative activity against human MOLT-4 cells measured after 48 hrs by SRB assay; assay type: functional, cell-based
[4] = tested on: SR; assay: Antiproliferative activity against human SR cells measured after 48 hrs by SRB assay; assay type: functional, cell-based
[5] = tested on: A549; assay: Antiproliferative activity against human A549 cells measured after 48 hrs by SRB assay; assay type: functional, cell-based
[6] = tested on: EKVX; assay: Antiproliferative activity against human EKVX cells measured after 48 hrs by SRB assay; assay type: functional, cell-based
[7] = tested on: HOP-62; assay: Antiproliferative activity against human HOP-62 cells measured after 48 hrs by SRB assay; assay type: functional, cell-based
[8] = tested on: NCI-H23; assay: Antiproliferative activity against human NCI-H23 cells measured after 48 hrs by SRB assay; assay type: functional, cell-based
[9] = tested on: NCI-H322M; assay: Antiproliferative activity against human NCI-H322M cells measured after 48 hrs by SRB assay; assay type: functional, cell-based
[10] = tested on: HCC 2998; assay: Antiproliferative activity against human HCC 2998 cells measured after 48 hrs by SRB assay; assay type: functional, cell-based
[11] = tested on: HCT-116; assay: Antiproliferative activity against human HCT-116 cells measured after 48 hrs by SRB assay; assay type: functional, cell-based
[12] = tested on: HCT-15; assay: Antiproliferative activity against human HCT-15 cells measured after 48 hrs by SRB assay; assay type: functional, cell-based
[13] = tested on: HT-29; assay: Antiproliferative activity against human HT-29 cells measured after 48 hrs by SRB assay; assay type: functional, cell-based
[14] = tested on: SW-620; assay: Antiproliferative activity against human SW-620 cells measured after 48 hrs by SRB assay; assay type: functional, cell-based
[15] = tested on: SF-268; assay: Antiproliferative activity against human SF-268 cells measured after 48 hrs by SRB assay; assay type: functional, cell-based
[16] = tested on: SF-295; assay: Antiproliferative activity against human SF-295 cells measured after 48 hrs by SRB assay; assay type: functional, cell-based
[17] = tested on: SF-539; assay: Antiproliferative activity against human SF-539 cells measured after 48 hrs by SRB assay; assay type: functional, cell-based
[18] = tested on: SNB-19; assay: Antiproliferative activity against human SNB-19 cells measured after 48 hrs by SRB assay; assay type: functional, cell-based
[19] = tested on: SNB-75; assay: Antiproliferative activity against human SNB-75 cells measured after 48 hrs by SRB assay; assay type: functional, cell-based
[20] = tested on: Malme-3M; assay: Antiproliferative activity against human Malme-3M cells measured after 48 hrs by SRB assay; assay type: functional, cell-based
[21] = tested on: SK-MEL-2; assay: Antiproliferative activity against human SK-MEL-2 cells measured after 48 hrs by SRB assay; assay type: functional, cell-based
[22] = tested on: SK-MEL-28; assay: Antiproliferative activity against human SK-MEL-28 cells measured after 48 hrs by SRB assay; assay type: functional, cell-based
[23] = tested on: SK-MEL-5; assay: Antiproliferative activity against human SK-MEL-5 cells measured after 48 hrs by SRB assay; assay type: functional, cell-based
[24] = tested on: UACC-257; assay: Antiproliferative activity against human UACC-257 cells measured after 48 hrs by SRB assay; assay type: functional, cell-based
[25] = tested on: UACC-62; assay: Antiproliferative activity against human UACC-62 cells measured after 48 hrs by SRB assay; assay type: functional, cell-based
[26] = tested on: OVCAR-5; assay: Antiproliferative activity against human OVCAR-5 cells measured after 48 hrs by SRB assay; assay type: functional, cell-based
[27] = tested on: OVCAR-8; assay: Antiproliferative activity against human OVCAR-8 cells measured after 48 hrs by SRB assay; assay type: functional, cell-based
[28] = tested on: SK-OV-3; assay: Antiproliferative activity against human SK-OV-3 cells measured after 48 hrs by SRB assay; assay type: functional, cell-based
[29] = tested on: ACHN; assay: Antiproliferative activity against human ACHN cells measured after 48 hrs by SRB assay; assay type: functional, cell-based
[30] = tested on: RXF 393; assay: Antiproliferative activity against human RXF 393 cells measured after 48 hrs by SRB assay; assay type: functional, cell-based
[31] = tested on: SN12C; assay: Antiproliferative activity against human SN12C cells measured after 48 hrs by SRB assay; assay type: functional, cell-based
[32] = tested on: TK-10; assay: Antiproliferative activity against human TK-10 cells measured after 48 hrs by SRB assay; assay type: functional, cell-based
[33] = tested on: UO-31; assay: Antiproliferative activity against human UO-31 cells measured after 48 hrs by SRB assay; assay type: functional, cell-based
[34] = tested on: DU-145; assay: Antiproliferative activity against human DU-145 cells measured after 48 hrs by SRB assay; assay type: functional, cell-based
[35] = tested on: BT-549; assay: Antiproliferative activity against human BT-549 cells measured after 48 hrs by SRB assay; assay type: functional, cell-based
[36] = tested on: MDA-MB-468; assay: Antiproliferative activity against human MDA-MB-468 cells measured after 48 hrs by SRB assay; assay type: functional, cell-based
[37] = tested on: WI-38; assay: Antiproliferative activity against human WI-38 cells measured by MTT assay; assay type: functional, cell-based
[38] = target: T1, Mitogen-activated protein kinase 10 (Homo sapiens, UniProt P53779); assay: Inhibition of JNK3 (unknown origin) at 1 uM relative to control
[39] = target: T1, Mitogen-activated protein kinase 10; assay: Inhibition of JNK3 (unknown origin)

T1 sequence (P53779 whole entry): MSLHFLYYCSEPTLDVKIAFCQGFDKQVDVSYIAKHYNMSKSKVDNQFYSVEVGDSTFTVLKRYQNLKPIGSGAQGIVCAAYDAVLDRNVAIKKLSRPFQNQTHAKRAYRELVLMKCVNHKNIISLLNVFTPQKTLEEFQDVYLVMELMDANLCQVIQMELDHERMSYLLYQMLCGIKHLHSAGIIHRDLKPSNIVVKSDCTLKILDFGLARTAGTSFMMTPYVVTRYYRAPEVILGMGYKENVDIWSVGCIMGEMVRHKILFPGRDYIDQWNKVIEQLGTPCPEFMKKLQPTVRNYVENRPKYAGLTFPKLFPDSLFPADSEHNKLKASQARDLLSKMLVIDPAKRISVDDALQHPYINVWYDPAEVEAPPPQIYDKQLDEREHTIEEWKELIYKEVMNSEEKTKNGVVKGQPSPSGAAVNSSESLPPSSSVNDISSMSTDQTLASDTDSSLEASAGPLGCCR

O=C(Nc1ccc(Cl)c(C(F)(F)F)c1)N1CCN(c2cc(-c3cn(-c4ccccc4)nc3-c3cccc(O)c3)ccn2)CC1 showed an IC50 ([1]; HL-60, 48 h) of 2.34 µM, a TGI ([1]; HL-60, time 48 hrs) of 8.58 µM and an IC50 ([2]; K562, 48 h) of 2.13 µM. For the same molecule, the TGI ([2]; K562, time 48 hrs) was greater than 22 µM, the IC50 ([3]; MOLT-4, 48 h) was 0.93 µM and the TGI ([3]; MOLT-4, time 48 hrs) was 7.58 µM. The IC50 ([4]; 48 h) was 3.07 µM, the TGI ([4]; time 48 hrs) was greater than 22 µM and the IC50 ([5]; A549, 48 h) was 4.34 µM. The TGI ([5]; A549, time 48 hrs) was greater than 22 µM, the IC50 ([6]; 48 h) was 2.57 µM and the TGI ([6]; time 48 hrs) was 19.6 µM. For the same molecule, the IC50 ([7]; HOP-62, 48 h) was 6.28 µM, the TGI ([7]; HOP-62, time 48 hrs) was greater than 22 µM and the IC50 ([8]; NCI-H23, 48 h) was 3.69 µM. The TGI ([8]; NCI-H23, time 48 hrs) was 14.9 µM, the IC50 ([9]; 48 h) was 5.86 µM and the TGI ([9]; time 48 hrs) was greater than 22 µM. For the same molecule, the IC50 ([10]; HCC 2998, 48 h) was 6.1 µM, the TGI ([10]; HCC 2998, time 48 hrs) was greater than 22 µM and the IC50 ([11]; HCT-116, 48 h) was 1.86 µM. The TGI ([11]; HCT-116, time 48 hrs) was greater than 22 µM, the IC50 ([12]; HCT-15, 48 h) was 2.84 µM and the TGI ([12]; HCT-15, time 48 hrs) was greater than 22 µM. For the same molecule, the IC50 ([13]; HT-29, 48 h) was 4.1 µM, the TGI ([13]; HT-29, time 48 hrs) was greater than 22 µM and the IC50 ([14]; SW-620, 48 h) was 4.78 µM. For the same molecule, the TGI ([14]; SW-620, time 48 hrs) was greater than 22 µM, the IC50 ([15]; SF-268, 48 h) was 3.3 µM and the TGI ([15]; SF-268, time 48 hrs) was greater than 22 µM. It also gave an IC50 ([16]; SF-295, 48 h) of 1.5 µM, a TGI ([16]; SF-295, time 48 hrs) of 7.25 µM and an IC50 ([17]; SF-539, 48 h) of 4.21 µM. It also gave a TGI ([17]; SF-539, time 48 hrs) greater than 22 µM, an IC50 ([18]; SNB-19, 48 h) of 4.06 µM and a TGI ([18]; SNB-19, time 48 hrs) greater than 22 µM. The IC50 ([19]; SNB-75, 48 h) was 0.63 µM, the TGI ([19]; SNB-75, time 48 hrs) was 11.1 µM and the IC50 ([20]; 48 h) was 3.3 µM. For the same molecule, the TGI ([20]; time 48 hrs) was 8.95 µM, the IC50 ([21]; SK-MEL-2, 48 h) was 3.54 µM and the TGI ([21]; SK-MEL-2, time 48 hrs) was 7.57 µM. It also gave an IC50 ([22]; SK-MEL-28, 48 h) of 3.41 µM, a TGI ([22]; SK-MEL-28, time 48 hrs) of 10.3 µM and an IC50 ([23]; SK-MEL-5, 48 h) of 2.58 µM. For the same molecule, the TGI ([23]; SK-MEL-5, time 48 hrs) was 5.45 µM, the IC50 ([24]; UACC-257, 48 h) was 4.77 µM and the TGI ([24]; UACC-257, time 48 hrs) was 14.3 µM. The IC50 ([25]; UACC-62, 48 h) was 2.68 µM, the TGI ([25]; UACC-62, time 48 hrs) was 5.77 µM and the IC50 ([26]; OVCAR-5, 48 h) was 4.13 µM. For the same molecule, the TGI ([26]; OVCAR-5, time 48 hrs) was 10.5 µM, the IC50 ([27]; OVCAR-8, 48 h) was 4.72 µM and the TGI ([27]; OVCAR-8, time 48 hrs) was greater than 22 µM. For the same molecule, the IC50 ([28]; SK-OV-3, 48 h) was 6.43 µM, the TGI ([28]; SK-OV-3, time 48 hrs) was greater than 22 µM and the IC50 ([29]; 48 h) was 3 µM. It also gave a TGI ([29]; time 48 hrs) of 17 µM, an IC50 ([30]; RXF 393, 48 h) of 2.42 µM and a TGI ([30]; RXF 393, time 48 hrs) of 9.79 µM. The IC50 ([31]; 48 h) was 3.21 µM, the TGI ([31]; time 48 hrs) was greater than 22 µM and the IC50 ([32]; TK-10, 48 h) was 5.92 µM. The TGI ([32]; TK-10, time 48 hrs) was greater than 22 µM, the IC50 ([33]; UO-31, 48 h) was 3 µM and the TGI ([33]; UO-31, time 48 hrs) was greater than 22 µM. For the same molecule, the IC50 ([34]; DU-145, 48 h) was 7.15 µM, the TGI ([34]; DU-145, time 48 hrs) was greater than 22 µM and the IC50 ([35]; BT-549, 48 h) was 3.33 µM. It also gave a TGI ([35]; BT-549, time 48 hrs) of 7.99 µM, an IC50 ([36]; MDA-MB-468, 48 h) of 1.03 µM and a TGI ([36]; MDA-MB-468, time 48 hrs) of 7.22 µM. The IC50 [37] was greater than 20 µM, the inhibition [38] was 14% and the IC50 [39] was greater than 1 µM.
